In US20040047823A1, “Use of ergothioneine and/or its derivatives as an anti-pollution agent” (priority 2003, published 2004):

Tested on: human keratinocytes
Experiment: Protective effect against ozone-induced peroxides in human keratinocytes (2,7-dichlorofluorescine diacetate / DCF fluorescence)
Assay type: cell-based
Details: for % fluorescence observed ±SEM, expressed as % relative to the unprotected controls: ergothioneine 1 mM (24 h pretreatment at 0.5 mM), n=4; for drop in induced stress: ergothioneine 1 mM
Procedure: In a first stage, human keratinocytes obtained from plastic surgeries, inoculated beforehand on D-3 into a 48-well dish at a rate of 25 000 cells/cm^2, are pretreated with ergothioneine dissolved in the culture medium for 24 hours, at a final concentration of 0.5 mM. A marker, 0,2,7-dichlorofluorescine diacetate, is then incorporated: after removing the ergothioneine solution and rinsing with PBS, the human keratinocytes are placed in contact for 30 minutes with a solution of 2,7-dichlorofluorescine diacetate (320 μM in phosphate-buffered saline PBS) at a rate of 500 μl per well, and are then rinsed again with PBS. The cells are then exposed to ozone: after placing the cells in contact with a fresh solution of ergothioneine in PBS at a concentration of 1 mM, at a rate of 100 μl per well, the cells are exposed to ozone in an incubator (37° C., humid atmosphere) with an ozone concentration of 10 ppm. The effects induced by the ozone are then measured by measuring the appearance of 2,7-dichloroflorescine (DCF: excitation at 485 nm and emission at 530 nm) after different exposure times: 0, 5, 10 and 20 minutes. Four independent experiments were performed and each measurement was repeated six times. The appearance of ozone-generated peroxides in the cell is reflected by an increase in the fluorescence. For each time, the fluorescence values of the unprotected controls are set at 100%. The results, in the presence of ergothioneine, are then expressed relative to this control value. A reduction in this value indicates a protective effect of the extract.

Structure (SMILES): C[N+](C)(C)[C@@H](Cc1c[nH]c(=S)[nH]1)C(=O)[O-] [ergothioneine]
- % fluorescence observed ±SEM, expressed as % relative to the unprotected controls (5 min. of contact with ozone 10 ppm): 18.9 ± 2.4%
- drop in induced stress (5 minutes of exposure to ozone 10 ppm): 81.1%
- % fluorescence observed ±SEM, expressed as % relative to the unprotected controls (10 min. of contact with ozone 10 ppm): 25.9 ± 3.8%
- drop in induced stress (10 minutes of exposure to ozone 10 ppm): 74.1%
- % fluorescence observed ±SEM, expressed as % relative to the unprotected controls (20 min. of contact with ozone 10 ppm): 51.4 ± 10.2%
- drop in induced stress (20 minutes of exposure to ozone 10 ppm): 48.6%
